Assay: wn = mass fraction of the nth substance listed
Settings: 100 kPa, Liquid; for viscosity: Falling or rolling sphere viscometry; for mass density: Vibrating tube method

CNCCO [2-(methylamino)ethanol] + O
Settings | mass density, w1 = 0.075 [kg/m3] | mass density, w1 = 0.15 [kg/m3] | mass density, w1 = 0.225 [kg/m3] | mass density, w1 = 0.3 [kg/m3] | viscosity, w1 = 0.075 [mPa·s] | viscosity, w1 = 0.15 [mPa·s] | viscosity, w1 = 0.225 [mPa·s] | viscosity, w1 = 0.3 [mPa·s]
293.15 K | 997.66 | 997.93 | 999 | 1001.69 | 1.39 | 1.875 | 2.702 | 3.973
298.15 K | 996.35 | 996.35 | 997.03 | 999.21 | 1.217 | 1.639 | 2.367 | 3.335
303.15 K | 994.81 | 994.57 | 994.9 | 996.58 | 1.075 | 1.426 | 2.02 | 2.886
308.15 K | 993.06 | 992.6 | 992.58 | 993.8 | 0.958 | 1.263 | 1.744 | 2.461
313.15 K | 991.11 | 990.45 | 990.11 | 990.81 | 0.859 | 1.151 | 1.521 | 2.157
318.15 K | 988.99 | 988.13 | 987.49 | 987.7 | 0.777 | 1.022 | 1.409 | 1.902
323.15 K | 986.7 | 985.66 | 984.71 | 984.5 | 0.707 | 0.993 | 1.299 | 1.727

Reference: the NIST ThermoML archive (doi:10.1021/acs.jced.6b00504)
